{"source": "patent US20050197350A1", "about": "“Novel quinoline, tetrahydroquinazoline, and pyrimidine derivatives and methods of treatment related to the use thereof” (TAISHO PHARMACEUTICAL CO., LTD., priority 2003, published 2005)"}
{"system": "MCH receptors", "experiment": "MCH receptor activity class (method not given)", "conditions": "class by percent of control at 10^-7 M or IC50"}
{"smiles": "CCCN(CCC)C(=O)[C@H](CCC(=O)N[C@H]1CC[C@@H](Nc2cc(N(C)C)c3ccccc3n2)CC1)NC(=O)c1ccccc1", "note": "(relative stereo) [compound 730]", "class": "3 (Class 3 The value of percent of control at 10^−7 M was more than 60% or the value of IC50 was more than 200 nM.)"}
{"smiles": "CN(C)c1cc(N[C@H]2CC[C@@H](NC(=O)C(CC(=O)c3ccc(Cl)cc3)SCc3ccc(Cl)cc3)CC2)nc2ccccc12", "note": "(relative stereo) [compound 741]", "class": "3 (Class 3 The value of percent of control at 10^−7 M was more than 60% or the value of IC50 was more than 200 nM.)"}
{"smiles": "Cc1ccc(C(=O)CC(SCc2ccc(Cl)cc2)C(=O)N[C@H]2CC[C@@H](Nc3cc(N(C)C)c4ccccc4n3)CC2)cc1", "note": "(relative stereo) [compound 742]", "class": "3 (Class 3 The value of percent of control at 10^−7 M was more than 60% or the value of IC50 was more than 200 nM.)"}
{"smiles": "CC1=C(CC(=O)N[C@H]2CC[C@@H](Nc3cc(N(C)C)c4ccccc4n3)CC2)c2cc(F)ccc2/C1=C/c1ccc([S+](C)[O-])cc1", "note": "(relative stereo) [compound 743]", "class": "3 (Class 3 The value of percent of control at 10^−7 M was more than 60% or the value of IC50 was more than 200 nM.)"}
{"smiles": "CC(C(=O)N[C@H]1CC[C@@H](Nc2cc(N(C)C)c3ccccc3n2)CC1)c1ccc(C(=O)c2cccs2)cc1", "note": "(relative stereo) [compound 744]", "class": "3 (Class 3 The value of percent of control at 10^−7 M was more than 60% or the value of IC50 was more than 200 nM.)"}
{"smiles": "COC(C(=O)N[C@H]1CC[C@@H](Nc2cc(N(C)C)c3ccccc3n2)CC1)c1ccccc1", "note": "(relative stereo) [compound 777]", "class": "3 (Class 3 The value of percent of control at 10^−7 M was more than 60% or the value of IC50 was more than 200 nM.)"}
{"smiles": "CN(C)c1cc(N[C@H]2CC[C@@H](NC(=O)C3CCc4ccccc4C3)CC2)nc2ccccc12", "note": "(relative stereo) [compound 778]", "class": "3 (Class 3 The value of percent of control at 10^−7 M was more than 60% or the value of IC50 was more than 200 nM.)"}
{"smiles": "CN(C)c1cc(N[C@H]2CC[C@@H](CNC(=O)C(Cc3ccccc3)c3ccccc3)CC2)nc2ccccc12", "note": "(relative stereo) [compound 793]", "class": "3 (Class 3 The value of percent of control at 10^−7 M was more than 60% or the value of IC50 was more than 200 nM.)"}
{"smiles": "CN(C)c1cc(N[C@H]2CC[C@@H](CNC(=O)C3CC(=O)c4ccccc43)CC2)nc2ccccc12", "note": "(relative stereo) [compound 798]", "class": "3 (Class 3 The value of percent of control at 10^−7 M was more than 60% or the value of IC50 was more than 200 nM.)"}
{"smiles": "CCOc1ccc(C(=O)CC(C(=O)NC[C@H]2CC[C@@H](Nc3cc(N(C)C)c4ccccc4n3)CC2)C2C(=O)N(c3ccccc3)N=C2C)cc1", "note": "(relative stereo) [compound 807]", "class": "3 (Class 3 The value of percent of control at 10^−7 M was more than 60% or the value of IC50 was more than 200 nM.)"}
{"smiles": "CN(C)c1ccnc(N[C@H]2CC[C@@H](NC(=O)C(Cc3ccccc3)c3ccccc3)CC2)n1", "note": "(relative stereo) [compound 817]", "class": "3 (Class 3 The value of percent of control at 10^−7 M was more than 60% or the value of IC50 was more than 200 nM.)"}
{"smiles": "CN(C)c1ccnc(N[C@H]2CC[C@@H](NC(=O)C3CC(=O)c4ccccc43)CC2)n1", "note": "(relative stereo) [compound 823]", "class": "3 (Class 3 The value of percent of control at 10^−7 M was more than 60% or the value of IC50 was more than 200 nM.)"}
{"smiles": "CN(C)c1ccnc(N[C@H]2CC[C@@H](NC(=O)[C@H](CCCCNC(=O)c3ccccc3)NC(=O)c3ccccc3)CC2)n1", "note": "(relative stereo) [compound 843]", "class": "2 (Class 2: The value of percent of control at 10^−7 M was from 40% to 60% or the value of IC′50 was from 50 nM to 200 nM.)"}
{"smiles": "CC(C(=O)N[C@H]1CC[C@@H](Nc2nccc(N(C)C)n2)CC1)c1ccc(-c2ccccc2)c(F)c1", "note": "(relative stereo) [compound 847]", "class": "3 (Class 3 The value of percent of control at 10^−7 M was more than 60% or the value of IC50 was more than 200 nM.)"}
{"smiles": "CC(C(=O)N[C@H]1CC[C@@H](Nc2nccc(N(C)C)n2)CC1)c1ccc(N2Cc3ccccc3C2=O)cc1", "note": "(relative stereo) [compound 849]", "class": "3 (Class 3 The value of percent of control at 10^−7 M was more than 60% or the value of IC50 was more than 200 nM.)"}
{"smiles": "COc1ccc2c(c1)C(CC(=O)N[C@H]1CC[C@@H](Nc3nccc(N(C)C)n3)CC1)CC2=O", "note": "(relative stereo) [compound 852]", "class": "3 (Class 3 The value of percent of control at 10^−7 M was more than 60% or the value of IC50 was more than 200 nM.)"}
{"smiles": "CN(C)c1ccnc(N[C@H]2CC[C@@H](NC(=O)C(CC(=O)c3ccccc3)c3c[nH]c4ccccc34)CC2)n1", "note": "(relative stereo) [compound 855, N-(cis-4-{[4-(dimethylamino)pyrimidin-2-yl]amino}cyclohexyl)-2-(1H-indol-3-yl)-4-oxo-4-phenylbutanamide]", "class": "1 (Class 1: The value of percent of control at 10^−7 M was less than 40% or the value of IC50 was less than 50 nM.)"}
{"smiles": "CN(C)c1ccnc(N[C@H]2CC[C@@H](NC(=O)C(CC(=O)c3ccc(Br)cc3)c3c[nH]c4ccccc34)CC2)n1", "note": "(relative stereo) [compound 856]", "class": "2 (Class 2: The value of percent of control at 10^−7 M was from 40% to 60% or the value of IC′50 was from 50 nM to 200 nM.)"}
{"smiles": "CCc1cccc2c(C(CC(=O)c3ccc(C(C)(C)C)cc3)C(=O)N[C@H]3CC[C@@H](Nc4nccc(N(C)C)n4)CC3)c[nH]c12", "note": "(relative stereo) [compound 860]", "class": "3 (Class 3 The value of percent of control at 10^−7 M was more than 60% or the value of IC50 was more than 200 nM.)"}
{"smiles": "CN(C)c1ccnc(N[C@H]2CC[C@@H](NC(=O)C(CC(=O)c3ccc(C(C)(C)C)cc3)c3cn(C)c4ccccc34)CC2)n1", "note": "(relative stereo) [compound 861]", "class": "3 (Class 3 The value of percent of control at 10^−7 M was more than 60% or the value of IC50 was more than 200 nM.)"}
{"smiles": "Cc1ccc(C(=O)CC(C(=O)N[C@H]2CC[C@@H](Nc3nccc(N(C)C)n3)CC2)c2cn(C)c3ccccc23)cc1", "note": "(relative stereo) [compound 862, N-(cis-4-{[4-(dimethylamino)pyrimidin-2-yl]amino}cyclohexyl)-2-(1-methyl-1H-indol-3-yl)-4-(4-methylphenyl)-4-oxobutanamide]", "class": "1 (Class 1: The value of percent of control at 10^−7 M was less than 40% or the value of IC50 was less than 50 nM.)"}
{"smiles": "CCCN(CCC)C(=O)[C@H](CCC(=O)N[C@H]1CC[C@@H](Nc2nccc(N(C)C)n2)CC1)NC(=O)c1ccccc1", "note": "(relative stereo) [compound 870]", "class": "2 (Class 2: The value of percent of control at 10^−7 M was from 40% to 60% or the value of IC′50 was from 50 nM to 200 nM.)"}
{"smiles": "CN(C)c1ccnc(N[C@H]2CC[C@@H](NC(=O)C(CC(=O)c3ccc(Cl)cc3)SCc3ccc(Cl)cc3)CC2)n1", "note": "(relative stereo) [compound 881]", "class": "3 (Class 3 The value of percent of control at 10^−7 M was more than 60% or the value of IC50 was more than 200 nM.)"}
{"smiles": "Cc1ccc(C(=O)CC(SCc2ccc(Cl)cc2)C(=O)N[C@H]2CC[C@@H](Nc3nccc(N(C)C)n3)CC2)cc1", "note": "(relative stereo) [compound 882]", "class": "3 (Class 3 The value of percent of control at 10^−7 M was more than 60% or the value of IC50 was more than 200 nM.)"}
{"smiles": "CC1=C(CC(=O)N[C@H]2CC[C@@H](Nc3nccc(N(C)C)n3)CC2)c2cc(F)ccc2/C1=C/c1ccc([S+](C)[O-])cc1", "note": "(relative stereo) [compound 883, N-(cis-4-{[4-(dimethylamino)pyrimidin-2-yl]amino}cyclohexyl)-2-{(1E)-5-fluoro-2-methyl-1-[4-(methylsulfinyl)benzylidene]-1H-inden-3-yl}acetamide]", "class": "2 (Class 2: The value of percent of control at 10^−7 M was from 40% to 60% or the value of IC′50 was from 50 nM to 200 nM.)"}
{"smiles": "CC(C(=O)N[C@H]1CC[C@@H](Nc2nccc(N(C)C)n2)CC1)c1ccc(C(=O)c2cccs2)cc1", "note": "(relative stereo) [compound 884, N-(cis-4-{[4-(dimethylamino)pyrimidin-2-yl]amino}cyclohexyl)-2-[4-(2-thienylcarbonyl)phenyl]propanamide]", "class": "2 (Class 2: The value of percent of control at 10^−7 M was from 40% to 60% or the value of IC′50 was from 50 nM to 200 nM.)"}
{"smiles": "COC(C(=O)N[C@H]1CC[C@@H](Nc2nccc(N(C)C)n2)CC1)c1ccccc1", "note": "(relative stereo) [compound 916]", "class": "3 (Class 3 The value of percent of control at 10^−7 M was more than 60% or the value of IC50 was more than 200 nM.)"}
{"smiles": "CN(C)c1ccnc(N[C@H]2CC[C@@H](NC(=O)C3CCc4ccccc4C3)CC2)n1", "note": "(relative stereo) [compound 917]", "class": "3 (Class 3 The value of percent of control at 10^−7 M was more than 60% or the value of IC50 was more than 200 nM.)"}
{"smiles": "CN(C)c1ccnc(N[C@H]2CC[C@@H](CNC(=O)C(Cc3ccccc3)c3ccccc3)CC2)n1", "note": "(relative stereo) [compound 930, N-[(cis-4-{[4-(dimethylamino)pyrimidin-2-yl]amino}cyclohexyl)methyl]-2,3-diphenylpropanamide]", "class": "2 (Class 2: The value of percent of control at 10^−7 M was from 40% to 60% or the value of IC′50 was from 50 nM to 200 nM.)"}
{"smiles": "CN(C)c1ccnc(N[C@H]2CC[C@@H](CNC(=O)C3CC(=O)c4ccccc43)CC2)n1", "note": "(relative stereo) [compound 935, N-[(cis-4-{[4-(dimethylamino)pyrimidin-2-yl]amino}cyclohexyl)methyl]-3-oxoindane-1-carboxamide]", "class": "1 (Class 1: The value of percent of control at 10^−7 M was less than 40% or the value of IC50 was less than 50 nM.)"}
{"smiles": "CCOc1ccc(C(=O)CC(C(=O)NC[C@H]2CC[C@@H](Nc3nccc(N(C)C)n3)CC2)C2C(=O)N(c3ccccc3)N=C2C)cc1", "note": "(relative stereo) [compound 944]", "class": "3 (Class 3 The value of percent of control at 10^−7 M was more than 60% or the value of IC50 was more than 200 nM.)"}
{"smiles": "CN(C)c1nc(N[C@H]2CC[C@@H](NC(=O)C(Cc3ccccc3)c3ccccc3)CC2)nc2c1CCCC2", "note": "(relative stereo) [compound 954]", "class": "2 (Class 2: The value of percent of control at 10^−7 M was from 40% to 60% or the value of IC′50 was from 50 nM to 200 nM.)"}
{"smiles": "CN(C)c1nc(N[C@H]2CC[C@@H](NC(=O)C3CC(=O)c4ccccc43)CC2)nc2c1CCCC2", "note": "(relative stereo) [compound 960]", "class": "2 (Class 2: The value of percent of control at 10^−7 M was from 40% to 60% or the value of IC′50 was from 50 nM to 200 nM.)"}
